Laboratory results as given in patent US20030044861A1, “Method for diagnosing neoplasia” (priority 1998, published 2003).
“Also recorded” adds a separate entry of the source. Like-named read-outs stand apart in the source and are kept apart here.

Legend:
[1] = tested on: PDE peak B (novel cGMP-specific PDE) from SW-480 cells; assay: cGMP hydrolysis by PDE peak B; format: biochemical, human; settings: for IC50: cGMP hydrolysis, 0.25 μM 3H-cGMP substrate; for Km: peak B
[2] = target: T1, PDE peak A (PDE5) from SW-480 cells (Homo sapiens, UniProt O76074); assay: cGMP hydrolysis by PDE peak A; format: biochemical
T1 construct: SW-480 cells are collected and homogenized; The homogenate is centrifuged, and the supernatant is loaded onto a DEAE-Trisacryl M column; endogenous in cells; host or cells: SW-480 human colon carcinoma cells, DEAE-Trisacryl M fraction peak A

HT-29 cells = assay: Apoptosis and necrosis by morphology (acridine orange/ethidium bromide); format: cell-based; settings: for % Apoptosis / % Necrosis: HT-29 cells treated for 6 days
Protocol: In one type of apoptosis assay, suspected neoplastic cells are removed from a patient. The cells are then grown in culture in the presence or absence of a cGMP-specific PDE inhibitor. Apoptotic cells are measured by combining both the attached and “floating” compartments of the cultures. The protocol for treating tumor cell cultures with PDE inhibitors and related compounds to obtain a significant amount of apoptosis has been described in the literature. (See, Piazza, G. A., et al., Cancer Research, 55:3110-16, 1995, which is incorporated herein by reference). The novel features of this assay include collecting both floating and attached cells, identification of the optimal treatment times and dose range for observing apoptosis, and identification of optimal cell culture conditions.
Following treatment of neoplastic and normal cells with a test compound, cultures can be assayed for apoptosis and necrosis by fluorescent microscopy following labeling with acridine orange and ethidium bromide. The method for measuring apoptotic cell number has previously been described by Duke & Cohen, “Morphological And Biochemical Assays Of Apoptosis,” Current Protocols In Immunology, Coligan et al., eds. 3.17.1-3.17.16 (1992, which is incorporated herein by reference).
For example, floating and attached cells are collected, and aliquots of cells are centrifuged. The cell pellet is then resuspended in media and a dye mixture containing acridine orange and ethidium bromide. The mixture is then examined microscopically for morphological features of apoptosis.
Apoptotic and necrotic cell death was determined as previously described (Duke and Cohen, In: Current Protocols in Immunology, 3.17.1-3.17.16, New York, John Wiley and Sons, 1992). […] All data were collected from the same experiment.
The diagnostic method of this invention is used to determine whether a particular neoplasia is sensitive to treatment with a cGMP-specific PDE inhibitor. The apoptosis inducing activity for a series of phosphodiesterase inhibitors, specific for different PDEs, was determined. HT-29 cells were treated for 6 days with various inhibitors of phosphodiesterase. Apoptosis and necrosis were determined morphologically after acridine orange and ethidium bromide labeling in accordance with the assay described, supra.

neoplastic cells = assay: Apoptosis induction and growth inhibition in neoplastic cells (words only); format: cell-based
[3] = tested on: colonic polyps of familial polyposis patients; assay: Apoptosis clinical study, apoptotic labeling index (ALI) in biopsies; format: in vivo, human
Protocol: Increases in apoptosis are indicative that the neoplasia in question is sensitive to treatment with a cGMP-specific PDE inhibitor, such as sulindac sulfone (aposulind). A human in vivo aposulind-induced selective induction of apoptosis in colonic polyps is described below. Six familial polyposis patients per group were administered one of three doses of aposulind (200 mg, 400 mg which was later lowered to 200 mg for most patients in the group, or 300 mg) twice daily (BID).
Biopsies are taken from patients and used to investigate possible cellular mechanisms of apoptosis. Biopsy samples are placed in transfer media (500 ml RPMI1640 containing 50 ml fetal calf serum, 5×10^8 units penicillin G, and 5×10^6 μg streptomycin) and kept on ice for less than 1 hour until transfer to the pathology department. Upon receipt in the pathology department, samples are removed from the transfer media and oriented mucosa up, serosa down on filter paper, placed between biopsy sponges in a tissue cassette, and fixed in 10% neutral buffered formalin for 24 hours. Samples are then transferred to 70% ethanol and embedded in paraffin. Samples are oriented perpendicularly to the tissue cassette during final orientation in paraffin for longitudinal crypt exposure and easy visualization of mucosa and the relation to the basement membrane.
Four micron sections of tissue were cut, mounted, deparaffinized, rehydrated in graded alcohol, and treated with pepsin (5 mg/ml) to digest protein in the tissue. Sections were washed and treated with 2% hydrogen peroxide (H2O2) in PBS to quench endogenous peroxidase and washed again. Tissue samples were then circled with a PAP pen (Research Products Int., 800-323-9814) to produce a hydrophobic barrier to concentrate reagents on the sample. If a DNase positive control is desired, the sample is treated with DNase for 10 minutes, equilibrated in transferase buffer, and treated using 100 enzyme units/ml terminal transferase enzyme (TdT) at 37° C. for 60 minutes. Samples are washed and anti-digoxigenin-peroxidase is applied. Each sample is then covered with a coverslip and left in a humid box at room temperature for 30 minutes. After washing three times peroxidase is developed using DAB for nine minutes. After sufficient color development, the slides are washed and counterstained with hemotoxylin and eosin.
Apoptotic and nonapoptotic cells are counted on the basis of staining and morphology. An apoptotic labeling index (ALI) is calculated by dividing the total number of apoptotic cells counted by the total number of epithelial cells counted and expressing the quotient as a percentage.

[4] = target: T2, GST-PDE5 binding domain fusion protein (Homo sapiens, UniProt O76074); assay: Cyclic GMP binding assay, 3H-cGMP saturation binding; settings: read-out: Km for cGMP; 3H-cGMP saturation binding curve at 25° C.
T2 construct: made in house; host or cells: E. coli BL21
Protocol: The assay was performed in a total volume of 100 μL containing 5 mM sodium phosphate buffer (pH 6.8), 1 mM EDTA and 0.25 mg/ml BSA and H^3-cGMP (5.8 Ci/mmol, NEN). The purified soluble GST-PDE5 binding domain fusion protein (5 to 50 μg/assay) was incubated at […] for one hour and then transferred to a Brandel MB-24 Cell Harvester with GF/B as the filter membrane. Next the fusion protein was washed twice with 10 mL of cold 5 mM potassium buffer, pH 6.8. The membranes were cut out and transferred to scintillation vials, then 1 ml of H2O and 6 ml of Ready Safe liquid scintillation cocktail as added and the samples were counted on a Beckman LS 6500 scintillation counter. A ^3H-cGMP saturation binding curve at 25° C. was generated.

PDE5 cGMP-binding sites = PDE5 cGMP-binding sites (Bos taurus, UniProt Q28156); settings: bovine PDE5; read-out: Kd of high affinity binding site; cited from earlier work

Q: With `CCCCCC[C@@H]([C@@H](C)O)n1cnc2c(N)ncnc21` (racemic) [EHNA] as the molecule, how does the IC50 [1] read?
A: 3.7 µM

Q: And the IC50 ([2]; cGMP hydrolysis, 0.25 μM 3H-cGMP substrate)?
A: > 100 µM

Q: Which “% Apoptosis” value (HT-29 cells) does the source give for `COc1nc2c([nH]1)c(=O)n(C)c(=O)n2CC(C)C` [8-methoxy-IBMX] here?
A: 2%

Q: And the “% Necrosis” value (HT-29 cells)?
A: 1%

Q: With `O=C([O-])C1CCN(c2nc(NCc3ccc4c(c3)OCO4)c3cc(Cl)ccc3n2)CC1.[Na+]` [Compound E4021] as the molecule, how does the “Sensitivity of the new cGMP-PDE to inhibition (in words)” value (shortened to “Sensitivity … to inhibition (in words)”) [1] read?
A: relatively insensitive

Q: And the “Apoptosis induction in neoplastic cells (in words)” value (“Apoptosis induction” below) (neoplastic cells)?
A: none of the three; also recorded: do not have significant apoptosis-inducing or growth-inhibiting properties

Q: And the “Growth inhibition of neoplastic cells (in words)” value (“Growth inhibition” for short) (neoplastic cells)?
A: none of the three; also recorded: do not have significant apoptosis-inducing or growth-inhibiting properties

Q: Which “Mode of inhibition of cGMP hydrolysis, peak B” value [1] does the source give for `COc1cc(/C=C2/C(C)=C(CC(=O)NCc3ccccc3)c3cc(F)ccc32)cc(OC)c1OC` [Compound E, [(Z)-5-fluoro-2-methyl-1-(3,4,5-trimethoxybenzylidene)-3-indenylacetamide, N-benzyl]] here?
A: competitively inhibit

Q: What about the IC50 [1] of the same molecule?
A: 0.37 µM

Q: What about the “Mode of inhibition of cGMP hydrolysis, peak A” value [2] of the same molecule?
A: competitively inhibit

Q: What about the “Ratio (IC50 PeakA/Peak B)” value ([2]; cGMP hydrolysis) of the same molecule?
A: 1.0

Q: What about the “Apoptosis induction” value (neoplastic cells) of the same molecule?
A: induce apoptosis in neoplastic cells

Q: And the “Growth inhibition” value (neoplastic cells)?
A: precisely the opposite

Q: Which results are given for `CC1=C(CC(=O)O)c2cc(F)ccc2/C1=C\c1ccc(S(C)(=O)=O)cc1` [Exisulind, (Z)-5-fluoro-2-methyl-1-[[4-(methylsulfonyl)phenyl]methylene]indene-3-yl acetic acid]?
A: Change in ALI after treatment ([3]; 200 mg BID group): did not demonstrate any elevation; Mean Polyp ALI ([3]; 200 mg BID, Month 1): 4.05%; Mean Polyp ALI ([3]; 200 mg BID, Month 4): 4.52%; Mean Polyp ALI ([3]; 200 mg BID, Month 6): 5.90%; Mean Polyp ALI ([3]; 300 mg BID, Month 1): 4.90%; Mean Polyp ALI ([3]; 300 mg BID, Month 6): 15.63%; Change in ALI of polyps after treatment ([3]; 300 mg BID, six months): two fold increase; Change in ALI of dysplastic tissue after treatment ([3]; 400/200 mg BID group while uniformly dosed at 400 mg BID): two-fold elevation; Mean Polyp ALI ([3]; 400/200 mg BID, Month 1): 10.98%; Mean Polyp ALI ([3]; 400/200 mg BID, Month 4): 5.51%; Mean Polyp ALI ([3]; 400/200 mg BID, Month 6): 5.10%; Polyp size and number ([3]; familial polyposis patients): diminution of polyp size and decrease in polyp number; Change in normal mucosa ALI versus baseline ALI ([3]; normal mucosa, any treatment group, over time): no significant change; Apoptosis levels in regressing polyps ([3]; over six months of treatment): doubled; Apoptotic and necrotic cell death (FIG. 1, in words) (HT-29 cells; HT-29 cells treated for six days): capable of causing apoptotic cell death without inducing neoplastic cell necrosis

Q: For `CC(C)Cn1c(=O)n(C)c(=O)c2[nH]cnc21` [IBMX], which “% Apoptosis” value (HT-29 cells) is on record?
A: 4%

Q: And the “% Necrosis” value (HT-29 cells)?
A: 13%

Q: With `CC1(C)C(=O)Nc2ccc(C3=NNC(=O)CC3)cc21` [Indolidan] as the molecule, how does the “Sensitivity … to inhibition (in words)” value [1] read?
A: relatively insensitive

Q: And the IC50 [1]?
A: > 100 µM

Q: And the “Ratio (IC50 PeakA/Peak B)” value ([2]; cGMP hydrolysis)?
A: <0.31

Q: Which “% Apoptosis” value (HT-29 cells) does the source give for `Clc1cccc(Nc2nnc(-c3ccccc3)c3ccccc23)c1` [MY5445] here?
A: 80%

Q: What about the “% Necrosis” value (HT-29 cells) of the same molecule?
A: 5%

Q: For `CCCCOc1cc(CC2CNC(=O)N2)ccc1OC` (stereo not drawn) [RO-20-1724], which “% Apoptosis” value (HT-29 cells) is on record?
A: 11%

Q: And the “% Necrosis” value (HT-29 cells)?
A: 2%

Q: Which “Sensitivity … to inhibition (in words)” value [1] does the source give for `COc1ccc(C2CNC(=O)C2)cc1OC1CCCC1` (stereo not drawn) [Rolipram] here?
A: relatively insensitive

Q: And the IC50 [1]?
A: > 100 µM

Q: With `CCCc1nn(C)c2c(=O)[nH]c(-c3cc(S(=O)(=O)N4CCN(C)CC4)ccc3OCC)nc12` [Sildenafil] as the molecule, how does the “Inhibition of peak A activity (in words)” value [2] read?
A: inhibited activity of peak A

Q: What about the “Apoptosis induction” value (neoplastic cells) of the same molecule?
A: none of the three; also recorded: do not have significant apoptosis-inducing or growth-inhibiting properties

Q: And the “Growth inhibition” value (neoplastic cells)?
A: none of the three; also recorded: do not have significant apoptosis-inducing or growth-inhibiting properties

Q: What does the source list for `CCOC(=O)C1=C[C@]2(CC)CCCN3CCc4c(n1c1ccccc41)[C@@H]32` [Vinpocetine]?
A: Sensitivity of the new cGMP-PDE to inhibition (in words) [1]: relatively insensitive; IC50 [1]: > 100 µM

Q: For `CCCOc1ccccc1-c1nc2nn[nH]c2c(=O)[nH]1` [Zaprinast], which “Mode of inhibition of cGMP hydrolysis, peak A” value [2] is on record?
A: competitive inhibition

Q: What about the “Apoptosis induction” value (neoplastic cells) of the same molecule?
A: do not have significant apoptosis-inducing or growth-inhibiting properties

Q: What about the “Growth inhibition” value (neoplastic cells) of the same molecule?
A: do not have significant apoptosis-inducing or growth-inhibiting properties

Q: What about the “Apoptosis induction” value (neoplastic cells; listed as zaprinast) of the same molecule?
A: none of the three

Q: What about the “Growth inhibition” value (neoplastic cells; listed as zaprinast) of the same molecule?
A: none of the three

Q: With `Nc1nc2c(ncn2[C@@H]2O[C@@H]3COP(=O)(O)O[C@H]3[C@H]2O)c(=O)[nH]1` [cGMP] as the molecule, how does the Km ([1]; decreasing slope of Eadie-Hofstee plot, absence of cAMP, read-out: apparent Km) read?
A: 8.4 µM

Q: And the Km ([1]; increasing slope of Eadie-Hofstee plot, called submicromolar affinity, read-out: Km)?
A: < 1 µM

Q: What about the Km [4] of the same molecule?
A: 0.41 ± 0.08 µM

Q: What about the Km ([2]; read-out: Km of the enzyme for cGMP, peak A) of the same molecule?
A: 1.07 µM

Q: What about the Kd (PDE5 cGMP-binding sites) of the same molecule?
A: 0.5 µM
